{"source": "ChEMBL document CHEMBL1201862", "about": "“PubChem BioAssay data set” (2004)", "key": {"[1]": {"assay": "cytotoxicity toward NIH3T3 fibroblasts, dose response, counter-screen, cell-based, ATP luminescence, mouse fibroblasts (AID 2010);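 note: cells exposed to compound for about 90 hours before reading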", "assay_type": "functional"}, "[2]": {"assay": "inhibitors of intracellular T. cruzi replication, confirmation, NIH3T3 host cells, beta-gal luminescence (AID 2044);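 note: luminescent beta-galactosidase reporter signal from transgenic T. cruzi replicating inside host cells; inhibitors lower the luminescence signal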", "assay_type": "functional, cell-based"}, "[3]": {"biological_target": "T1, Sentrin-specific protease 8 (Homo sapiens, UniProt Q96LD8)", "T1 sequence (Q96LD8 whole entry)": "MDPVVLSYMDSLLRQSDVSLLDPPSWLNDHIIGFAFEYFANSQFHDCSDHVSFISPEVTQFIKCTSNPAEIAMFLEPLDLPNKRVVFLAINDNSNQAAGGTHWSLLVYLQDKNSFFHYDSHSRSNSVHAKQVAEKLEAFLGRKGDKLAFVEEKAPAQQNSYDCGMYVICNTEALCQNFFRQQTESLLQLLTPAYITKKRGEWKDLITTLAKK", "assay": "SENP8 protease inhibitors, SAR follow-up, biochemical, luminescence (AID 504501)", "assay_type": "functional"}, "[4]": {"biological_target": "T2, Sentrin-specific protease 7 (Homo sapiens, UniProt Q9BQF6)", "T2 sequence (Q9BQF6 whole entry)": "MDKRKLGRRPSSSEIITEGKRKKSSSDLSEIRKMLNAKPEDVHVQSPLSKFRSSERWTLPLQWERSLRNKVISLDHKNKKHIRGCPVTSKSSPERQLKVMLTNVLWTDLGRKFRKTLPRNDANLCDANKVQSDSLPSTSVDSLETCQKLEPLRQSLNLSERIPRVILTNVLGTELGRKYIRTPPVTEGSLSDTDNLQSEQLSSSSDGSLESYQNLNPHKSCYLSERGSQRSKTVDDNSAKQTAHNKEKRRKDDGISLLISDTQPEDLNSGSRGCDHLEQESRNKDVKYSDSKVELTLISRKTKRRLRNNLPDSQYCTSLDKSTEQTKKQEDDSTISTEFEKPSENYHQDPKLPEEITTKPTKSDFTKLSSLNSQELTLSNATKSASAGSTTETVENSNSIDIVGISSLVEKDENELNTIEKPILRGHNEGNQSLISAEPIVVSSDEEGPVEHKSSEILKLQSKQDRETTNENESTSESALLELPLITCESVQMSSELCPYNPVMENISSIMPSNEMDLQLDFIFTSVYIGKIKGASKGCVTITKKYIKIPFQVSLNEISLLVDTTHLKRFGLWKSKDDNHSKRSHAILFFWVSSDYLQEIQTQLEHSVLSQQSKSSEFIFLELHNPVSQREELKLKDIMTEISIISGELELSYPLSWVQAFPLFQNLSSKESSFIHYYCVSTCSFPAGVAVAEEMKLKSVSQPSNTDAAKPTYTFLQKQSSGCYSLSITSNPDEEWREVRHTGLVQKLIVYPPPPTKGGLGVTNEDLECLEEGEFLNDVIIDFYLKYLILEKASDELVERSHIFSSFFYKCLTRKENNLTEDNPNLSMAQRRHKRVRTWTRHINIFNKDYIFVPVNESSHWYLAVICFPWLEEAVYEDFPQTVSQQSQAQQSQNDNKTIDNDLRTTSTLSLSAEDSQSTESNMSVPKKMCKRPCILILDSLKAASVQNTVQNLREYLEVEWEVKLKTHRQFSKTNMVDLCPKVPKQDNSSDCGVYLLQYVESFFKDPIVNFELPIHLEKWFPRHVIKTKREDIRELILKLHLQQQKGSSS", "assay": "SENP7 protease inhibitors, SAR follow-up, biochemical, luminescence (AID 504497)", "assay_type": "functional"}, "[5]": {"biological_target": "T3, Serine/threonine-protein phosphatase (Homo sapiens, UniProt Q9BPW0)", "T3 sequence (Q9BPW0 whole entry)": "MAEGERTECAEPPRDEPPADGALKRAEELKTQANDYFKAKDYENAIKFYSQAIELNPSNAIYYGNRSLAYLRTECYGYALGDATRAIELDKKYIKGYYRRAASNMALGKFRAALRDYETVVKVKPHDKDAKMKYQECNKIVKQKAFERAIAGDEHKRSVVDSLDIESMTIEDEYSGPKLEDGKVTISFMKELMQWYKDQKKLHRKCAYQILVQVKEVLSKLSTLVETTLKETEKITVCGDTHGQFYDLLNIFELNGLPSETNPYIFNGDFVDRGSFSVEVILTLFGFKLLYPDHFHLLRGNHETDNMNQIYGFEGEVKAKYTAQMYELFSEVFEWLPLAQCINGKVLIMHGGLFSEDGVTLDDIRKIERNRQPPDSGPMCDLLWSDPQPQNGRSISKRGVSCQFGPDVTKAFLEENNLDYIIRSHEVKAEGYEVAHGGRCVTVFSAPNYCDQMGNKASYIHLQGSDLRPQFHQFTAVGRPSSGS", "assay": "PP5 phosphatase inhibitors, dose response, biochemical, fluorescence (AID 2395)"}, "[6]": {"biological_target": "Polyadenylate-binding protein 1 (Homo sapiens, UniProt P11940)", "sequence (P11940 whole entry)": "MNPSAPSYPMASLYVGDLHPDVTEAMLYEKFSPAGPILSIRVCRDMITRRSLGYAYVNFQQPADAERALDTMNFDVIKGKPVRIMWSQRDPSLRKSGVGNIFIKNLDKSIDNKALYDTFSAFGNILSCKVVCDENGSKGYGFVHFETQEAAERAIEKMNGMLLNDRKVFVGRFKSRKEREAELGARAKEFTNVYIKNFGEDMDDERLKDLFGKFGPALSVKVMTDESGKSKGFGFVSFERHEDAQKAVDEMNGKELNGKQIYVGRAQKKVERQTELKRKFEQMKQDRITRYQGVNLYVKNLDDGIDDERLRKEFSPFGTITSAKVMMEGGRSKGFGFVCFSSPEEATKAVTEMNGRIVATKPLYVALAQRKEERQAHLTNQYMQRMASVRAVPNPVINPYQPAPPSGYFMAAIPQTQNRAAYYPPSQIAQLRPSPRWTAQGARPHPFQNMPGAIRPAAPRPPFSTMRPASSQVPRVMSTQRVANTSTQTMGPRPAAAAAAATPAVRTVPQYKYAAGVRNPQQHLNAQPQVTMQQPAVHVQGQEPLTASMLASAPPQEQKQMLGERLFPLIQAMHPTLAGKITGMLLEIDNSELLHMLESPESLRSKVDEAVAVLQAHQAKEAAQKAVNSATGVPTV", "assay": "PABP1 MLLE–PAM2 interaction inhibitors, dose response, miRNA deadenylation inhibitor project, biochemical, fluorescence polarization, Cy5-PAM2 peptide, secondary (AID 602260)", "assay_type": "functional", "conditions": "read-out: IC50_Mean"}, "SUMO E1/E2": {"biological_target": "SUMO E1/E2 (Homo sapiens, UniProt P63279+Q9UBE0+Q9UBT2)", "sequence (Q9UBE0 whole entry)": "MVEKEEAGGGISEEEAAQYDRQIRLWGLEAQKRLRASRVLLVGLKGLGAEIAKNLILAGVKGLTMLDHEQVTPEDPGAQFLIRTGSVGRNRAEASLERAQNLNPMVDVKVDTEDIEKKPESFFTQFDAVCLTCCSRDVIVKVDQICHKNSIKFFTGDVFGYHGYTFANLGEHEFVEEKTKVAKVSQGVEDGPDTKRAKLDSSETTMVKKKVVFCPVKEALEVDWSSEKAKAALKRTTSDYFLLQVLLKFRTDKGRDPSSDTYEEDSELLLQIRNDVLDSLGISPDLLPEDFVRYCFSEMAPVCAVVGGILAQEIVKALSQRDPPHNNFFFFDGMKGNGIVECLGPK", "sequence (Q9UBT2 whole entry)": "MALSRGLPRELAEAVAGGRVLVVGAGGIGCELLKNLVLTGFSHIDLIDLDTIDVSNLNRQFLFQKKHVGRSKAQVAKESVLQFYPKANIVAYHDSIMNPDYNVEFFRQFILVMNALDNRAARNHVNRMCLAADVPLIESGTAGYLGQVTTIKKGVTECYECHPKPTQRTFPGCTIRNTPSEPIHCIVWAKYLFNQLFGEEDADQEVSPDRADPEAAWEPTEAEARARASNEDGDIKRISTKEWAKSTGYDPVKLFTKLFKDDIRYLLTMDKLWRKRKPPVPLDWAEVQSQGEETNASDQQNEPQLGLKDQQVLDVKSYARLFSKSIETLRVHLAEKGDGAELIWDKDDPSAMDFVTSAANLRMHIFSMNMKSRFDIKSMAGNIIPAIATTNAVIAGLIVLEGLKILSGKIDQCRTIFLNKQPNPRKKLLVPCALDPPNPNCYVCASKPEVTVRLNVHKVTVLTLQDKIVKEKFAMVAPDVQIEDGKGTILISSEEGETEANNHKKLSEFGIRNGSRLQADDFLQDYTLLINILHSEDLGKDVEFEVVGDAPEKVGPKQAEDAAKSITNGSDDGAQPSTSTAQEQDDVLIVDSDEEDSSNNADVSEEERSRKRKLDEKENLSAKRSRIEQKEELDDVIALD", "sequence (P63279 whole entry)": "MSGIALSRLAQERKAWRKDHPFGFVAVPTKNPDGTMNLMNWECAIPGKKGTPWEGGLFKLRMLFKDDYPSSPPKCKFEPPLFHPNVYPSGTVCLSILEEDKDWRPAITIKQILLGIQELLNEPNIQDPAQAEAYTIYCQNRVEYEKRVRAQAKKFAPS", "assay": "SAR analysis of SUMOylation using HTRF in an in-Vitro dose response assay. [Related pubchem assays (depositor defined):AID2006, AID2011, AID2018, AID2069, AID2658]", "assay_type": "functional"}, "[7]": {"assay": "AlphaScreen signal interference compounds, dose response, artefact control for ARNT-TACC3 interaction inhibitor project, biochemical, luminescence, cherry-pick (AID 651705);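 note: AlphaScreen bead proximity signal that flags compounds interfering with the detection technology; potency reflects signal decrease which marks the compound as an assay artifact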", "assay_type": "functional"}, "[8]": {"biological_target": "Nucleotide-binding oligomerization domain-containing protein 2 (Homo sapiens, UniProt Q9HC29)", "sequence (Q9HC29 whole entry, the tested form may be a part)": "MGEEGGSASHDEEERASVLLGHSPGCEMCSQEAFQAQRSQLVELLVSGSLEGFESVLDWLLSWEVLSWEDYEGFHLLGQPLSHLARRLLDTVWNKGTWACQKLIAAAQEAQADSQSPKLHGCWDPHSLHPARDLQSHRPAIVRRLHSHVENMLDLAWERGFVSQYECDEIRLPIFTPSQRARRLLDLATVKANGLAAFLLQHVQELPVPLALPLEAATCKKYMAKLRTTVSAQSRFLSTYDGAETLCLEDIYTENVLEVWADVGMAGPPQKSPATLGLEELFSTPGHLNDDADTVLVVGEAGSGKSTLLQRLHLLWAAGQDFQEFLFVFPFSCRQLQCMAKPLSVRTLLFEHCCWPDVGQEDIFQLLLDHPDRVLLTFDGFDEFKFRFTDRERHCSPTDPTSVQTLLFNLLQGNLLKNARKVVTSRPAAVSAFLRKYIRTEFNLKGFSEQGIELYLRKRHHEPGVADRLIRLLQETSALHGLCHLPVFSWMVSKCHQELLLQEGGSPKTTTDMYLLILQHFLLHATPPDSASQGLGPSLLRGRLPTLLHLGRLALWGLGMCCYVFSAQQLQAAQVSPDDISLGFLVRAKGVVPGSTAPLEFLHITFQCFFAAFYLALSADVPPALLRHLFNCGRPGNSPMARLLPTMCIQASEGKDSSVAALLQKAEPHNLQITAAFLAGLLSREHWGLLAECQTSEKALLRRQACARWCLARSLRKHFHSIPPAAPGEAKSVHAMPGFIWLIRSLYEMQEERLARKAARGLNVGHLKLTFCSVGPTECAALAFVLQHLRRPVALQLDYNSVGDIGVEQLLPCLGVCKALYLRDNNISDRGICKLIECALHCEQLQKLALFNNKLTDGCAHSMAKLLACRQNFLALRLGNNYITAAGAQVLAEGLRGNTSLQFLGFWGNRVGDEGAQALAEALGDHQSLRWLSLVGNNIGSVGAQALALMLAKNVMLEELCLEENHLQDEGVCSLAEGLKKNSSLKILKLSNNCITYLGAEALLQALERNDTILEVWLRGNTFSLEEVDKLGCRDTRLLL", "assay": "NOD2 signaling inhibitors, cell-based, luminescence, uHTS, HEK293 (AID 1566)", "assay_type": "functional"}, "H4 [9]": {"system": "H4", "assay": "inhibitors of control reporter signal in H4 cells – cell-based, plate reader, dry powder samples, counter-screen for prion reporter project, dose response (AID 540255)", "assay_type": "functional", "conditions": "Homo sapiens"}, "HEK293 [10]": {"system": "HEK293", "assay": "cells", "assay_type": "functional, cell-based", "conditions": "Homo sapiens"}, "HEK293 [11]": {"system": "HEK293", "assay": "cells", "assay_type": "functional, cell-based", "conditions": "Homo sapiens", "remark": "listed apart in the source"}, "Streptococcus": {"system": "Streptococcus", "assay": "Group A Streptococcus viability loss, dose response, counter-screen for streptokinase expression inhibitor project, luminescence, BacTiterGlo (AID 1915);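 note: potency for reduction of bacterial viability or growth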", "assay_type": "functional, organism-based"}, "[12]": {"biological_target": "Heat shock protein HSP 90-alpha (Homo sapiens, UniProt P07900)", "assay_type": "functional, organism-based"}, "HEK293 [13]": {"system": "HEK293", "assay": "NOD1 signaling inhibitors, primary screen, cell-based, luminescence, uHTS (AID 1578)", "assay_type": "functional", "conditions": "Homo sapiens"}, "[14]": {"biological_target": "Delta-type opioid receptor (Homo sapiens, UniProt P41143)", "sequence (P41143 whole entry)": "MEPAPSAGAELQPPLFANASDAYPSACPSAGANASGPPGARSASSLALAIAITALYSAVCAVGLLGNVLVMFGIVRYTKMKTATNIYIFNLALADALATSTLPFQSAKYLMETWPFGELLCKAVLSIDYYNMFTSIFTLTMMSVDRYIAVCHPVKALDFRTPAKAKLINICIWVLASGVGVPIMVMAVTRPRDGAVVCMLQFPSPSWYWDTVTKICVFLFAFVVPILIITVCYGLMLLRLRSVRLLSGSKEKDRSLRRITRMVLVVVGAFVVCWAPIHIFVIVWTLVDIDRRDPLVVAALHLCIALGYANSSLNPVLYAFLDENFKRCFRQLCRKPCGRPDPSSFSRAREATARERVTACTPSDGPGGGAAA", "assay": "Counterscreen for agonists of heterodimerization of the mu 1 (OPRM1) and delta 1 (OPRD1) opioid receptors: Luminescence-based cell-based high throughput dose response assay to identify agonists of OPRD1 homodimerization. [Related pubchem assays (depositor defined):AID504326, AID504355, AID504692, AID504904, AID504905]", "assay_type": "functional"}, "H4 [15]": {"system": "H4", "assay": "Inhibitors of Prion Protein 5' UTR mRNA Measured in Cell-Based System Using Plate Reader - 2078-01_Inhibitor_Dose_DryPowder_Activity. [Related pubchem assays (depositor defined):AID488894]", "assay_type": "functional", "conditions": "Homo sapiens"}}, "note": "The source made the active and inactive calls."}
{"compound": "Cc1ccc(C(=O)NNc2cc(N3CCCC3)nc(N3CCCC3)n2)cc1", "values": [{"measurement": "EC50", "setting": "[1]", "result": "> 30 µM (not active)"}, {"measurement": "EC50", "setting": "[2]", "result": "2.3 µM (active)"}, {"measurement": "IC50", "setting": "[3]", "result": "4.39 µM (active)"}, {"measurement": "IC50", "setting": "[4]", "result": "7.68 µM (active)"}, {"measurement": "IC50", "setting": "[5]", "result": "4.1 µM (active)"}]}
{"compound": "O=C1/C(=N\\c2cccc(O)c2)C(N2CCCCC2)=C(O)c2ccccc21", "values": [{"measurement": "IC50", "setting": "[6]", "result": "> 66 µM (inactive)"}]}
{"compound": "COC(=O)c1cccc(-c2ccc(C(c3c(C)n[nH]c3O)c3c(C)n[nH]c3O)o2)c1", "values": [{"measurement": "IC50", "setting": "SUMO E1/E2", "result": "> 100 µM (inactive)"}, {"measurement": "AC50", "setting": "[7]", "result": "107 µM (active)"}]}
{"compound": "Cc1cc(/C=C2\\SC(=S)N(C)C2=O)c(C)n1-c1ccc(O)cc1", "values": [{"measurement": "EC50", "setting": "[8]", "result": "570 nM (active)"}, {"measurement": "AC50", "setting": "H4 [9]", "result": "492 nM (active)"}, {"measurement": "IC50", "setting": "HEK293 [10]", "result": "> 20 µM (inactive)"}, {"measurement": "IC50", "setting": "HEK293 [11]", "result": "11.2 µM (active)"}, {"measurement": "EC50", "setting": "Streptococcus", "result": "3.06 µM (active)"}, {"measurement": "AC50", "setting": "[12]", "result": "8.02 µM (active)"}, {"measurement": "EC50", "setting": "HEK293 [13]", "result": "9.47 µM (active)"}, {"measurement": "EC50", "setting": "[14]", "result": "15.1 µM (inactive)"}, {"measurement": "AC50", "setting": "H4 [15]", "result": "181 nM (active)"}]}
